Results taken from the supplement of paper PMC13380429.

Tests used:
Conditions in all cases: 72 h
[1] = test system: Caco-2; assay: cell viability relative to DMSO; higher = less toxic
[2] = test system: Calu-3; assay: as above
[3] = test system: HepG2; assay: as above
[4] = test system: U2OS; assay: as above
[5] = test system: Vero E6; assay: as above
[6] = test system: Caco-2; assay: relative viability EC50 (midpoint between 100% and the lowest measured viability); higher = less toxic
[7] = test system: Calu-3; assay: as above
[8] = test system: HepG2; assay: as above
[9] = test system: U2OS; assay: as above
[10] = test system: Vero E6; assay: as above
[11] = test system: Caco-2; assay: drug sensitivity score (DSS) for viability; higher = more toxic; extreme values may be limits of the assay
[12] = test system: Calu-3; assay: as above
[13] = test system: HepG2; assay: as above
[14] = test system: U2OS; assay: as above
[15] = test system: Vero E6; assay: as above

Structure (SMILES)	cell viability ([1]; 1 nM) [%]	cell viability ([1]; 10 nM) [%]	cell viability ([1]; 100 nM) [%]	cell viability ([1]; 1000 nM) [%]	cell viability ([1]; 10000 nM) [%]	cell viability ([2]; 1 nM) [%]	cell viability ([2]; 10 nM) [%]	cell viability ([2]; 100 nM) [%]	cell viability ([2]; 1000 nM) [%]	cell viability ([2]; 10000 nM) [%]	cell viability ([3]; 1 nM) [%]	cell viability ([3]; 10 nM) [%]	cell viability ([3]; 100 nM) [%]	cell viability ([3]; 1000 nM) [%]	cell viability ([3]; 10000 nM) [%]	cell viability ([4]; 1 nM) [%]	cell viability ([4]; 10 nM) [%]	cell viability ([4]; 100 nM) [%]	cell viability ([4]; 1000 nM) [%]	cell viability ([4]; 10000 nM) [%]	cell viability ([5]; 1 nM) [%]	cell viability ([5]; 10 nM) [%]	cell viability ([5]; 100 nM) [%]	cell viability ([5]; 1000 nM) [%]	cell viability ([5]; 10000 nM) [%]	relative viability EC50 [6] [µM]	relative viability EC50 [7] [µM]	relative viability EC50 [8] [µM]	relative viability EC50 [9] [µM]	relative viability EC50 [10] [µM]	drug sensitivity score [11]	drug sensitivity score [12]	drug sensitivity score [13]	drug sensitivity score [14]	drug sensitivity score [15]
Cc1cccc(C)c1NC(=O)C1CCCCN1C (stereo not given) [mepivacaine]	92.1	81.4	102	90.6	108	89.7	97.8	93.9	99.6	103	96.8	107	105	115	104	98	95.8	99.4	97.4	104	96.3	91.4	99.2	103	107	> 10	> 10	> 10	> 10	> 10	0	0	0	0	0
CCC(C)n1ncn(-c2ccc(N3CCN(c4ccc(OCC5COC(Cn6cncn6)(c6ccc(Cl)cc6Cl)O5)cc4)CC3)cc2)c1=O (stereo not given) [itraconazole]	103	101	111	99.7	97.2	91.1	102	101	104	98.6	92.7	94.9	101	92.7	97.6	92.1	99.5	93.9	102	109	92.9	87.4	87.2	87.9	108	> 10	> 10	> 10	> 10	> 10	0	0	0	0	0
OC[C@@H](O)[C@H]1O[C@@H]2O[C@H](C(Cl)(Cl)Cl)O[C@@H]2[C@H]1O [chloralose]	101	103	80.5	101	87.4	93.7	93.8	95.5	104	98.8	98.1	103	102	98.9	89.2	98.1	106	98.5	99.6	98.4	98.1	99	98.8	95.9	97.8	> 10	> 10	> 10	> 10	> 10	0	0	0	0	0
c1ccc(CN2CCC3(CCc4ccccc43)CC2)cc1	96.9	97.5	99	93	89.6	99.6	98.5	108	95.4	96.5	95.1	101	91.9	106	102	102	102	101	99.6	99.6	97.1	97	92.8	94.4	104	> 10	> 10	> 10	> 10	> 10	0	0	0	0	0
COC1=C[C@@H]2[C@@H]3Cc4ccc(OC)c(O)c4[C@]2(CCN3C)CC1=O [sinomenine]	107	96.9	90.5	98.8	104	100	95.4	100	92.4	95.8	109	104	99.2	88.5	96.3	94.1	98.5	98.8	104	94.3	105	97.7	103	97	105	> 10	> 10	> 10	> 10	> 10	0	0	0.4	0	0
CC(C)(C)c1ccc(C(=O)Nc2cn3cc(-n4ccnc4)ccc3n2)cc1 [TC-ASK-10]	96.1	101	99.3	109	81.8	97.9	95.6	105	105	93.9	87.1	102	98.4	104	77.2	96.4	97.3	99.5	98.8	91.6	93.2	103	93.8	95.5	99.1	> 10	> 10	> 10	> 10	> 10	0.2	0	0.6	0	0
NCCc1c[nH]cn1 [histamine]	90.8	105	101	110	104	99.4	100	101	95.7	109	100	102	103	100	97.5	94.9	99.7	97.5	103	102	99.4	98.2	93.5	97.5	104	> 10	> 10	> 10	> 10	> 10	0	0	0	0	0
COc1ccc(-c2nc(N3CCOCC3)c3sc(CN(C)c4ncc(C(=O)NO)cn4)cc3n2)cn1 [CUDC-907]	81.5	73.2	3.5	0.6	1	85.2	65.4	14.1	5.1	3.7	90.2	39.6	0.6	-0.1	-0.1	90.9	34.4	0.6	0.3	0.4	103	78.2	0	-0.3	-0.4	0.0177	0.0152	0.0069	0.006	0.0166	33	32	37.9	38.7	34
C[C@@H]1C[C@H]2[C@@H]3CCC4=CC(=O)C=C[C@]4(C)[C@@]3(F)[C@@H](O)C[C@]2(C)[C@H]1C(=O)CO [desoximetasone]	94.1	90.1	88	95.2	105	86.2	95	101	101	88.8	102	95.7	102	91.3	109	98.3	97.2	91.9	92.9	101	93	91.3	93.2	88.5	99	> 10	> 10	> 10	> 10	> 10	0	0	0	0	0
CCCCOCCOc1nc(-c2ccc(C(=O)O)c(F)c2)sc1C	94.1	97.2	94.6	100	82	109	104	109	89.8	84.8	97.5	104	105	102	102	103	102	96.5	89.6	90.1	100	99.7	97.5	99.9	90.8	> 10	> 10	> 10	> 10	> 10	0.4	1	0	0.1	0
CCN(CC)Cc1nccn1-c1ccc([N+](=O)[O-])cc1C(=O)c1ccccc1Cl [nizofenone]	124	92.8	81.8	108	81.1	93.3	105	98.8	105	99.5	100	96	98.4	95.7	95.5	105	102	97.1	102	98.7	102	100	104	102	92.9	> 10	> 10	> 10	> 10	> 10	0.3	0	0	0	0
CC(C)N(CCc1c[nH]c2ccccc12)C(C)C [DIPT]	95	103	107	101	102	85.7	95.4	97.5	96	103	93.2	86.3	99.5	86	95.7	101	99.7	98.2	102	96.6	103	98.9	101	95.1	97.4	> 10	> 10	> 10	> 10	> 10	0	0	0	0	0
CC(=O)N[C@@H](CSC/C=C(\C)CC/C=C(\C)CCC=C(C)C)C(=O)O [acetyl-farnesyl-cysteine]	92.9	98.1	100	101	108	108	84.9	86.6	99.9	101	90.9	92.5	99.8	102	105	95.7	96.9	101	99	101	93.9	107	93	99.6	101	> 10	> 10	> 10	> 10	> 10	0	0	0	0	0
N=C(N)SCCc1ccc(OCc2ccc([N+](=O)[O-])cc2)cc1 [KB-R7943]	88.7	103	99.2	97.2	94.5	104	110	93.5	99.6	98.4	96.2	108	108	90.3	78.8	96.5	105	98.3	105	102	99.7	101	99.2	97.4	90.4	> 10	> 10	> 10	> 10	> 10	0	0	1.7	0	0
